Reference: US9618513B2, “Compositions and methods for detecting and treating colorectal cancer” (The Regents of the University of Michigan, priority 2014, dated 2017)
“Also recorded” adds a separate entry of the source.

Legend:
[1] = system: NANOG, SOX2, POU5F1 (OCT3/4); assay: Stem cell core gene expression (real-time PCR, western blotting); type: cell-based, human; conditions: DLD-1, IL-22 20 ng/ml
Excerpt: (A), IL-22 is expressed in colon cancer tissues. IL-22 mRNA was detected by real-time PCR in colon cancer tissues and peripheral blood. *P<0.05 compared to blood, 20 colon cancer patients. (B-D), Endogenous IL-22 promotes colon carcinogenesis. Single cells (10^7) isolated from colon cancer tissue were mixed with anti-IL-22 antibody or control mAb, and then subcutaneously injected to NSG mice. Tumor growth (B), incidence (C), and animal survival (D) are shown. (P<0.05 for all, n=5 per group). (E-G) Recombinant IL-22 promotes colon carcinogenesis. DLD-1 colon cancer cells (10^5) were pre-incubated with IL-22 (20 ng/ml) for 1 hour, and then subcutaneously injected to NSG mice. […] ALDH activity was determined by FACS based on aldefluor fluorescence. […] Results are expressed as fold changes of ALDH expression. […] The mRNA of stem cell core gene was detected by real-time PCR (K) and proteins were detected by western blotting (L, M). […]
(A, B) IL-22 is expressed by immune cells in colon cancer tissues. Different cell populations were sorted from colon cancer tissues and IL-22 expression was measured by real time PCR. […] IL-22 was detected via ELISA. […] IL-22 was detected with ELISA (D) or intracellular staining (E). […] IL-22 mRNA was detected by real time PCR (F) and protein by ELISA (G). […] IL-22 expression was quantified with real-time PCR in the migrated and non-migrated cells. […]

STAT3 = assay: STAT phosphorylation by western blotting; type: cell-based, human; conditions: colon cancer cells treated with IL-22
Protocol: (A) IL-22 induced STAT3 phosphorylation. Colon cancer cells were treated with IL-22 for different time points. The protein levels of phosphorylated STAT3 and STAT3 were detected by Western blotting. (B, C) IL-22 induced colon cancer spheres via STAT3. Sphere assay was performed with shSTAT3 colon cancer cells in the presence of IL-22. Results were shown as sphere images (b) and the mean numbers of spheres in triplicate (c). (n=5. P<0.01). (D-F) IL-22 stimulated colon cancer sternness gene expression via STAT3. Colon cancer cells expressing shSTAT3 or scrambled vector were cultured with IL-22. Stem cell core gene mRNAs were detected by real-time PCR after 6 hours (n=5, *P<0.05). (G, H) IL-22 causes STAT3 occupancy on SOX2 promoter areas. STAT3-ChIP assay was performed in DLD-1 cells cultured with or without IL-22. One of at least three experiments is shown.
A. The protein level of phosphorylated STAT3, STAT1 and STATS were activated by IL-22. B. The effect of STAT3 knock down. C. The effect of IL-22 on cell proliferation was analyzed using H^3 Thymidine Incorporation in Stat3 knock down cells. D. Knock down of STAT3 reduced the expression of EZH2 and SUZ12. E. Based on the ENCODE STAT3-ChIP-Seq data base, STAT3 occupancy on the promoter areas of SUZ12 and EED is shown. F. SUZ12/EED DNA was detected by ChIP assay using an antibody against STAT3, c-fos was used as a positive control. […]

IL-22: recombinant IL-22 (R&D systems), cytokine interleukin-22
mRNA levels of stem cell core genes NANOG, SOX2, POU5F1 (OCT3/4) ([1]; real-time PCR): enhanced
protein levels of stem cell core genes NANOG, SOX2, POU5F1 (OCT3/4) ([1]; western blotting): enhanced
STAT3 activation (phosphorylation) (STAT3): activated; also recorded: activated STAT3 strongly
